Patent publication US20250051300A1, “GRAM-NEGATIVE SPECIFIC ANTIBIOTICS SPARING EFFECT ON GUT MICROBIOME” (THE BOARD OF TRUSTEES OF THE UNIVERSITY OF ILLINOIS, priority 2021, published 2025)

Key:
Test in all cases: MIC, gut commensal bacteria, micro-dilution broth
Lactobacillus reuteri = tested on: Lactobacillus reuteri
[1] = tested on: Bacteroides cellulosilyticus
Streptococcus salivarius = tested on: Streptococcus salivarius
Bacteroides vulgatus = tested on: Bacteroides vulgatus

Measured: MIC

Cc1cc(-c2c[nH]nc2-c2cccc(OCc3cccc(C#N)c3)c2)cc(C)n1 [Compound 12, 3-((3-(4-(2,6-dimethylpyridin-4-yl)-1H-pyrazol-3-yl)phenoxy)methyl)benzonitrile]
> 128 µg/mL: Lactobacillus reuteri; Limosilactobacillus reuteri, ATCC23272 | [1]; Bacteroides cellulosilyticus | Streptococcus salivarius; Streptococcus salivarius | Bacteroides vulgatus; Phocaeicola vulgatus
>128 µg/mL: Lactobacillus reuteri; Lactobacillus reuteri ATCC 23272, BHI-ych, listed as Lolamycin | [1]; Bacteroides cellulosilyticus KLE 2342, BHI-ych, listed as Lolamycin | Streptococcus salivarius; Streptococcus salivarius KLE 2370, BHI-ych, listed as Lolamycin | Bacteroides vulgatus; Bacteroides vulgatus KLE 2303, BHI-ych, listed as Lolamycin
